Blank lines part the entries; values can stand above or below the molecule they belong to.
Columns and labels:
[1] = Stability of resveratrol-polymer conjugates in physiological relevant buffers; assay type: physicochemical; conditions: phosphate buffer 0.1M pH 7.4, 37°C
Experimental: Briefly, reversed phase chromatographic separation was employed for analysis with xxx column. The HPLC gradient system consisted of solvent A, buffer pH 7.0 with triethyl amine-formic acid (0.05 and 0.2% v/v in water) and solvent B, methanol. A 30 min linear gradient was programmed as follows: 0 min 5% B, 4 min 20% B, 7 min 20% B, 16 min 55% B, 18 min 55% B, 18.5 min 95% B, 23 min 95% B, 24 min 5% B. The flow rate was maintained at 1 mL/min and the injection volume was 50 μL. The HPLC analysis was performed at ambient temperature. Altech Apollo C18 150 X 4.6 mm, 5μ column was employed for seperation. This HPLC method was validated to precisely separate and quantify the trans-resveratrol in the analyte mixture. There was at least two min difference in retention times for the trans and cis isomers of resveratrol. The UV spectrum of the trans isomer is very different from the cis isomer, thus any change to the trans isomer could have been detected. Although quantification was performed using the fluorescence detector at an excitation wavelength of 320nm and emission at 400 nm, simultaneous UV chromatograms were also recorded for specificity and peak purity purposes.
A similar procedure was used to study the stability of MeO-PEG-PLAO-Succ-RSV in buffers; micelles were prepared as per section 2.8 and diluted 1:5 with buffer solutions and incubated at 37°C. […]

[2] = Stability of resveratrol-polymer conjugates in rat plasma; assay type: in vitro ADME; conditions: 37°C
Experimental: The MeO-PEGN-Succ-RSV, 2 kDa, 20 kDa and MeO-PEGO-Succ-RSV 2 kDa (MW quoted in the paper is the size of polymer only. Mw for RSV is 228 Da) at the 10 mg/mL were incubated in plasma at 37°C. […] Aliquots of plasma (0.1 mL) were withdrawn at regular intervals and mixed with acetonitrile (0.9 mL). The mixtures were centrifuged at 10,000 rpm for 5 minutes. The supernatant (0.25 mL) was diluted with water (0.25 mL) and analysed by HPLC [28]. All samples were protected against light during the experiments.

[3] = Behaviour of conjugates in aqueous solution (solubility / self-aggregation); assay type: physicochemical; conditions: up to 10 mg/mL
Experimental: A solution of 40 mg of MeO-PEG-PLAO-Succ-RSV conjugate in acetonitrile (2 mL) was prepared. The stock solution was diluted with water (4 mL). The acetonitrile was removed by bubbling inert nitrogen gas at room temperature in the dark. The final volume of micellar/nanoparticle dispersion was adjusted to the required volume with water. For pharmacokinetic studies, final concentration of conjugate in micelle dispersion was 10 mg/mL and for critical micellear concentration measurement, the dispersion was diluted accordingly to obtain a series concentration of conjugate in solution below and above the CMC. The micelles of MeO-PEGO-Succ-RSV were formed spontaneously after dispersing in water.

[4] = In vitro metabolism in rat liver microsomes with UDPA; assay type: in vitro ADME; conditions: rat liver microsomes with UGT reaction mixture, 37°C
Experimental: Incubations of test substances in reaction mixtures without microsomes were used as a control. All samples were protected against light during the experiments.

[5] = Single dose intravenous pharmacokinetic study in Wistar rats; assay type: in vivo; conditions: 10 mg/kg
Experimental: Pharmacokinetic studies were conducted with male Wistar rats. Rats were acclimatized and housed at 22°C under 12h light/dark cycle with free access to sterilized commercial food pellets and water in the animal research facility (Curtin University) for at least 3 days prior to experiments. All animal experiments were approved by the Animal Ethics Committee of Curtin University (Approval no: R37–10 Amendment Approval No: A47–10 and A56–10) and were performed according to the Australian Code of Practice for the care and use of animals for scientific purposes. In order to minimize pain and suffering, the dosing and bleeding procedures were conducted under anesthesia (isoflurane at 5% for the induction and 2% for the maintenance, in combination with 1.5% oxygen). At the end of the study, rats were scarified by anesthetic euthanasia using 5% isofluorane with 1.5% oxygen. […] Blood (300 μL) was collected from the tail vein at 0.08, 0.5, 1, 2 and 4 hours into EDTA coated tubes. The blood samples were immediately stored in ice and protected from light until centrifuged (12000 × g at 4°C for 10 min). […] Metabolites were identified using LC-MS/MS (Applied Biosystems, 4000 QTRAP, Toronto, Canada).
Data analysis and representation (mean ± SD) were performed with SigmaPlot version 12 (Systat Software, Inc., Chicago, IL). Pharmacokinetic analysis was performed using Kinetica Version 5.0 (Thermo Fisher Scientific, Inc., Waltham, MA). Non compartmental analysis of the plasma concentration-time data was used to estimate the area under the curve (AUC0-∞; log-linear trapezoidal method), elimination half-life (t½), apparent clearance (CL; Dose÷AUC0-∞), mean residence time (MRT) and volume of distribution (Vss; CL×MRT). Statistical analysis of pharmacokinetic parameters was performed using unpaired t-test with Graphpad Prism software (version 6.05). Pharmacokinetic parameters obtained for each group were analyzed against the resveratrol group and p values were reported.

[6] = cited from earlier work
[7] = DPPH inhibition assay (in vitro antioxidant); assay type: biochemical; conditions: DPPH 1 x 10^-4M in methanol, 30 min, room temperature
Experimental: Final concentration of DPPH was maintained at 1 x 10^-4M. […] After 30 min incubation at room temperature, the absorbance of these solutions was determined at 518 nm using a Hewlett Packard 8452A, UV-VIS spectrophotometer (Waldbronn, Germany). […] The IC 50 values were determined from the plot of % DPPH remaining against concentration of RSV and its equivalent conjugates.

[8] = parameters: method as in PMID 18501919; conditions: cited from earlier work
[9] = male, Wistar, rat, plasma, mean ± SD

Molecule: MeO-PEG succinyl ester resveratrol [MeO-PEGO-Succ-RSV 2 kDa]
% Conjugate Remaining at 24 hr pH 7.4 [1]: ~65%
Plasma t1/2 ([2]; rat plasma in vitro): <5 min
Intact conjugate detected by HPLC at initial time point ([2]; rat plasma, initial time point of 0 h): almost no intact polymer conjugate was detected
Behaviour in aqueous solution [3]: self-aggregated into polymeric micelles

Time within which almost all was metabolized [4]: ≤ 10 min
Plasma concentration after two hours [5]: below the limit of detection
CL ([5]; mean ± SD): 335 ± 140 mL/min/kg
AUC(0-inf) [5, 9]: 2.4 ± 0.7 µM·h
MRT [5, 9]: 1.3 ± 1 h
Vd ([5]; male, Wistar, rat, plasma, mean ± SD, read-out: Vss): 26.8 ± 19.1 L/kg
half-life ([5]; male, Wistar, rat, plasma, mean ± SD, read-out: t½ (converted)): 1.4 ± 0.9 h
clearance ([5]; male, Wistar, rat, plasma, iv, mean ± SD): 333 mL/min/kg
Molecule: Oc1ccc(/C=C/c2cc(O)cc(O)c2)cc1 [Resveratrol, trans-Resveratrol]
CL (previous reports) [6]: 183 to 317 mL/min/kg
t½ (previous reports) [6]: 1.3 h

Molecule: α-methoxy-ω-carboxylic acid poly(ethylene glycol) succinylamide resveratrol [MeO-PEGN-Succ-RSV 2 kDa]
IC 50 DPPH inhibition [7]: similar

Molecule: CN(C)c1ccc(/N=N/c2ccccc2)cc1 [dimethyl yellow]
Aqueous solubility [8]: 13 µg/mL

Molecule: α-methoxy poly(ethylene glycol)-co-polylactide succinyl ester resveratrol [MeO-PEG-PLAO-Succ-RSV 2 kDa]
IC 50 DPPH inhibition [7]: similar

— article PMC4370505 (PLoS ONE, 2015)
